# Measurements as given in US20120302573A1, “METHODS OF INHIBITING PRO MATRIX METALLOPROTEINASE ACTIVATION” (priority 2011, published 2012).
# pIC50, pKd: −log10 of the molar value. Counter-ions that a name gives are not always drawn.
# Key:
# [1] = target: T1, proMMP9(20-445;ΔFnII) (SEQ ID NO:6) (Homo sapiens, UniProt P14780, DEL216-390); test: ThermoFluor binding assay with proMMP9(20-445;ΔFnII)
# T1 construct: amino acid pairs including: 29-215/391-444, 67-215/391-444, and 20-215/391-445, respectively; start methionine (N); made in house; host or cells: E. coli BL21(DE3) RIL
# T1 sequence (P14780 with tags, fused parts or gaps DEL216-390): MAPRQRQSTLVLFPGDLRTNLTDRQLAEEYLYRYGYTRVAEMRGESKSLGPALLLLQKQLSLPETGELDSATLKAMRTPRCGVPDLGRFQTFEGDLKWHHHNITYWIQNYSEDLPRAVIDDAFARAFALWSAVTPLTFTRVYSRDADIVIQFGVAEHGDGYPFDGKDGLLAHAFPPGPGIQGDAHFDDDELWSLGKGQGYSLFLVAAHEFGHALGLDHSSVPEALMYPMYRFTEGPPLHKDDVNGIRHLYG
# Experimental: (§1) The experiments were carried out using instruments available from Johnson & Johnson Pharmaceutical Research & Development, LLC. TF dye used in all experiments was […] (1,8-ANS) (Invitrogen: A-47).
# (§2) Columns 12 and 24 were used as DMSO reference and contained no compound. […] Following compound dispense, protein and dye solutions were added to achieve the final assay volume of 3 μL.
# (§3) Assay plates were robotically loaded onto a thermostatically controlled PCR-type thermal block and then heated from 40 to 90° C. at a ramp-rate of 1° C./min for all experiments. Fluorescence was measured by continuous illumination with UV light (Hamamatsu LC6) supplied via fiber optics and filtered through a band-pass filter (380-400 nm; >6 OD cutoff). Fluorescence emission of the entire 384-well plate was detected by measuring light intensity using a CCD camera (Sensys, Roper Scientific) filtered to detect 500±25 nm, resulting in simultaneous and independent readings of all 384 wells.
# (§4) Thermodynamic parameters necessary for fitting compound binding for each proMMP were estimated by differential scanning calorimetry (DSC) and from ThermoFluor® data. The heat capacity of unfolding for each protein was estimated from the molecular weight and from ThermoFluor® dosing data.
# The protein sample preparations included a desalting buffer exchange step via a PD-10 gravity column (GE Healthcare).
# [2] = target: T2, proMMP9(67-444;ΔFnII) (SEQ ID NO:5) (Homo sapiens, UniProt P14780, DEL216-390); test: ThermoFluor binding assay with proMMP9(67-444;ΔFnII)
# T2 construct: amino acid pairs including: 29-215/391-444, 67-215/391-444, and 20-215/391-445, respectively; start methionine (N); made in house; host or cells: E. coli BL21(DE3) RIL
# T2 sequence (P14780 with tags, fused parts or gaps DEL216-390): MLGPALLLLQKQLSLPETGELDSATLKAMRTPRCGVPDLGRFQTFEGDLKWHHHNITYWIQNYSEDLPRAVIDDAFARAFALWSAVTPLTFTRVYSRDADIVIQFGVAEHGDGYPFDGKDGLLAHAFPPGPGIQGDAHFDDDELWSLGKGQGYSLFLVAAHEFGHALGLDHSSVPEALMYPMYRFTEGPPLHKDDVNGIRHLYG
# Experimental: as §1, §2, §3, §4
# The protein sample preparations had to include a desalting buffer exchange step via a PD-10 gravity column (GE Healthcare).
# [3] = target: T3, proMMP13(1-268) (SEQ ID NO:7) (Homo sapiens, UniProt P45452); test: ThermoFluor binding assay with proMMP13(1-268)
# T3 construct: 6x-histidine tag (C); made in house; host or cells: HEK293
# Experimental: The ThermoFluor® (TF) assay is a 384-well plate-based binding assay that measures thermal stability of proteins (Biomol Screen 2001, 6, 429-40; Biochemistry 2005, 44, 5258-66). The experiments were carried out using instruments available from Johnson & Johnson Pharmaceutical Research & Development, LLC. TF dye used in all experiments was […] (1,8-ANS) (Invitrogen: A-47).
# Compounds were arranged in a pre-dispensed plate (Greiner Bio-one: 781280), wherein compounds were serially diluted in 100% DMSO across 11 columns within a series. Columns 12 and 24 were used as DMSO reference and contained no compound. For multiple compound concentration-response experiments, the compound aliquots ([…]) were robotically predispensed directly into black 384-well polypropylene PCR microplates (Abgene: TF-0384/k) using a Cartesian Hummingbird liquid handler (DigiLab, Holliston, Mass.). Following compound dispense, protein and dye solutions were added to achieve the final assay volume of 3 μL. The assay solutions were overlayed with 1 μL of silicone oil (Fluka, type DC 200: 85411) to prevent evaporation.
# as §3, with “wells. A single image with 20-sec exposure time was collected at each temperature, and the sum of the pixel intensity in a given area of the assay plate was recorded vs temperature and fit to standard equations to yield the Tm (J Biomol Screen 2001, 6, 429-40).” for “wells.”
# as §4
# The proMMP13(1-268) (SEQ ID NO:7) protein sample preparations included a desalting buffer exchange step via a PD-10 gravity column (GE Healthcare). The desalting buffer exchange was performed prior to diluting the protein to the final assay concentration of 3.5 μM. The concentration of proMMP13(1-268) (SEQ ID NO:7) was estimated spectrophotometrically based on a calculated extinction coefficient of ε280=37000 M^−1 cm^−1, a calculated molecular weight of 30.8 kDa, and calculated pI of 5.33. ThermoFluor® reference conditions were defined as follows: 100 μg/mL proMMP13(1-268) (SEQ ID NO:7), 25 μM 1,8-ANS, pH 7.0 Buffer (50 mM HEPES pH 7.0, 100 mM NaCl, 0.001% Tween-20, 2.5 mM MgCl2, 300 μM CaCl2). The thermodynamic parameters for proMMP13(1-268) (SEQ ID NO:7) are as follows: Tm (° C.)=67 (+/−0.1), ΔUH(Tm) (cal mol^−1)=107000(+/−5000), ΔUS(Tm) (cal mol^−1 K^−1)=318, ΔUCp (cal mol^−1 K^−1)=2600.
# [4] = target: T4, full-length proMMP9(1-707) activation by catalytic MMP3 (Homo sapiens, UniProt P14780, R574P); test: proMMP9/MMP3 P126 Activation Assay; assay type: biochemical; design: made in house; host or cells: E. coli (MMP3); settings: proMMP9 from HEK293 cells
# T4 sequence (P14780 20-707 R574P): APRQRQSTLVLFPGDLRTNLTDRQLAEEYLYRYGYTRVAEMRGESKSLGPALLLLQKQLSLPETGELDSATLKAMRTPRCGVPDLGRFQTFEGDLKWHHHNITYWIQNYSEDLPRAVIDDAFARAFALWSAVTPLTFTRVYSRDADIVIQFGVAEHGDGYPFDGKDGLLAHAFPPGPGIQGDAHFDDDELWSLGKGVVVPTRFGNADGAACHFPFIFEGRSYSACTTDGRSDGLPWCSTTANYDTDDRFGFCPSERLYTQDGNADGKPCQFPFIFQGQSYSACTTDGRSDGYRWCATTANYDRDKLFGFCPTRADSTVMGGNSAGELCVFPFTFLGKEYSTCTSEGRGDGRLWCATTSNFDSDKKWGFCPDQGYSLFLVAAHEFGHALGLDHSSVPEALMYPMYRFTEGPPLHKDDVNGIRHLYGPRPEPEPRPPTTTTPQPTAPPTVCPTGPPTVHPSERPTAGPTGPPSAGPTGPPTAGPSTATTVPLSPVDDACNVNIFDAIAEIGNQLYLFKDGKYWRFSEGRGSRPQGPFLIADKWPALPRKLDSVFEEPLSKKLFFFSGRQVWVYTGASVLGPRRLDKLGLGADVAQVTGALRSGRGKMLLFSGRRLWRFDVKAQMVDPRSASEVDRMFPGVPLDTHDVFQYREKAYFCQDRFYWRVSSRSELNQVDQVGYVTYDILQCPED
# Experimental: The assay buffer employed was 50 mM Hepes, pH 7.5, 10 mM CaCl2, 0.05% Brij-35. DMSO was included at a final concentration of 2%, arising from the test compound addition. […] The reaction volume was 50 μL. […] Initial velocities were plotted by use of a four-parameter logistics equation (GraphPad Prism® software) for determination of IC50.
# [5] = target: T4, full-length proMMP9(1-707) activation by catalytic MMP3; test: ProMMP9/MMP3 DQ Gelatin Activation Assay;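 further: readout is fluorescence of quenched fluorescein gelatin cut by activated MMP9, 30 min activation at 37 °C, inhibition relative to DMSO-only controls with EDTA as blank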; assay type: biochemical; design: made in house; host or cells: COS-1 (proMMP9); E. coli (MMP3); settings: proMMP9 from COS-1 cells; read-out: ProMMP9/MMP3 DQ gel, IC50
# Experimental: Compounds were assessed for inhibition of proMMP9 activation by catalytic MMP3 using a quenched fluorescein gelatin substrate (DQ gelatin, Invitrogen D12054) that fluoresces upon cleavage by activated MMP9. The assay buffer employed was 50 mM Hepes, pH 7.5, 10 mM CaCl2, 0.05% Brij-35. DMSO was included at a final concentration of 0.2%, arising from the test compound addition. […] Test compounds in DMSO were diluted 250-fold in assay buffer at 4× the final concentration. The reaction volume was 12 μL, and all reactions were conducted in triplicate. […] The plate was sealed and incubated for 30 min at 37° C. […] Immediately following the 30 min incubation, 4 μL of 40 μg/ml DQ gelatin substrate was added (freshly diluted in assay buffer), and incubated for 10 min at room temperature. […] Reactivity of residual MMP3 towards DQ gelatin was minimal under these conditions. Percent inhibition of test compounds were determined from suitable positive (DMSO only in assay buffer) and negative (EDTA added prior to reaction initiation) controls. Plots of % inhibition vs. test compound concentration were fit to a four-parameter logistics equation (GraphPad Prism® software) for determination of IC50.
SMILES,pKd [1],pKd [2],pKd [3],pIC50 [4],pIC50 [5]
"CC(=O)Nc1nc(C)c(-c2csc(Nc3ccccc3OC(C)C)n2)s1 [Example 1, N-[2-(2-Isopropoxy-phenylamino)-4′-methyl-[4,5′]bithiazolyl-2′-yl]-acetamide]",5.06,5.89,4.85,5.60,–
"Cc1nc(C)c(-c2csc(Nc3ccccc3OC(C)C)n2)s1 [Example 2, (2′,4′-Dimethyl-[4,5′]bithiazolyl-2-yl)-(2-isopropoxy-phenyl)-amine]",< 4.02,4.26,4.37,5.60,–
"Cc1nc(N)sc1-c1csc(Nc2ccccc2OC(C)C)n1 [Example 3, N^2-(2-Isopropoxy-phenyl)-4′-methyl-[4,5′]bithiazolyl-2,2′-diamine.TFA]",5.42,5.94,–,5.70,–
"COc1ccc(F)cc1Nc1nc(-c2sc(C)nc2C)cs1 [Example 5, (2′,4′-Dimethyl-[4,5′]bithiazolyl-2-yl)-(5-fluoro-2-methoxy-phenyl)-amine.HBr]",< 4.02,5.26,4.70,6.15,–
COc1ccc(F)cc1Nc1nc(-c2sc(NC(C)=O)nc2C)cs1 [Example 6],6.04,6.81,4.82,6.19,–
"Cc1nc(C)c(-c2csc(Nc3ccccc3OC(F)(F)F)n2)s1 [Example 14, (2′,4′-Dimethyl-[4,5′]bithiazolyl-2-yl)-(2-trifluoromethoxy-phenyl)-amine]",< 4.02,–,5.04,5.44,–
"CC(C)Oc1ccccc1Nc1nc(-c2cccnc2)cs1 [Example 15, (2-Isopropoxy-phenyl)-(4-pyridin-3-yl-thiazol-2-yl)-amine]",< 4.02,4.36,–,5.60,–
"COc1ccc(F)cc1Nc1nc(-c2sc(NC(C)=O)nc2C)c(Br)s1 [Example 18, N-[5-Bromo-2-(5-fluoro-2-methoxy-phenylamino)-4′-methyl-[4,5′]bithiazolyl-2′-yl]-acetamide.TFA]",5.54,6.42,–,5.59,–
"COc1ccc(Br)cc1Nc1nc(-c2sc(N)nc2C)cs1 [Example 20, N^2-(5-Bromo-2-methoxy-phenyl)-4′-methyl-[4,5′]bithiazolyl-2,2′-diamine.TFA]",5.67,6.38,–,5.48,–
"COc1ccc(Br)cc1Nc1nc(-c2sc(C)nc2C)cs1 [Example 27, (5-Bromo-2-methoxy-phenyl)-(2′,4′-dimethyl-[4,5′]bithiazolyl-2-yl)-amine.TFA]",4.30,–,–,5.51,–
"COc1ccc(F)cc1Nc1nc(-c2ccc3c(c2)ncn3C)cs1 [Example 41, (5-Fluoro-2-methoxy-phenyl)-[4-(1-methyl-1H-benzoimidazol-5-yl)-thiazol-2-yl]-amine]",5.71,–,–,5.72,–
"COc1ccc(F)cc1Nc1nc(-c2c(C)nc(C)n2C)cs1 [Example 42, (5-Fluoro-2-methoxy-phenyl)-[4-(2,3,5-trimethyl-3H-imidazol-4-yl)-thiazol-2-yl]-amine]",4.54,–,5.27,5.30,–
"COc1ccccc1Nc1nc(-c2sc(C)nc2C)cs1 [Example 64, (2′-4′-Dimethyl-[4,5′]bithiazolyl-2-yl)-(2-methoxy-phenyl)-amine]",4.32,4.34,< 4.02,–,5.68
"COc1ccc(OC)c(Nc2nc(-c3c[nH]c4ncccc34)cs2)c1 [Example 73, (2,5-Dimethoxy-phenyl)-[4-(1H-pyrrolo[2,3-b]pyridin-3-yl)-thiazol-2-yl]-amine]",4.59,4.80,4.74,–,4.75
"CCOc1ccccc1Nc1nc(-c2cn3ccccc3n2)cs1 [Example 74, (2-Ethoxy-phenyl)-(4-imidazo[1,2-a]pyridin-2-yl-thiazol-2-yl)-amine]",5.10,4.18,< 4.02,–,4.68
"COc1ccccc1Nc1nc(-c2cnc3cnccn23)cs1 [Example 75, (4-Imidazo[1,2-a]pyrazin-3-yl-thiazol-2-yl)-(2-methoxy-phenyl)-amine]",4.75,5.00,4.54,–,4.75
"COc1ccccc1Nc1nc(-c2c[nH]c3ncccc23)cs1 [Example 76, (2-Methoxy-phenyl)-[4-(1H-pyrrolo[2,3-b]pyridin-3-yl)-thiazol-2-yl]-amine]",4.57,4.97,4.24,–,4.79
"COc1ccc(F)cc1Nc1nc(-c2sc(C)nc2C)c(C)s1 [Example 77, N-(5-fluoro-2-methoxyphenyl)-2′,4′,5-trimethyl-[4,5′-bithiazol]-2-amine.HBr]",< 4.11,4.69,–,5.42,–
"COc1ccc(F)cc1Nc1nc(-c2sc(C3CCN(C)CC3)nc2C)cs1 [Example 78, N-(5-fluoro-2-methoxyphenyl)-4′-methyl-2′-(1-methylpiperidin-4-yl)-[4,5′-bithiazol]-2-amine.TFA]",6.06,6.84,–,6.89,–
"COc1ccc(F)cc1Nc1nc(-c2ccc(N3CCN(C4CC4)CC3)nc2)cs1 [Example 79, 4-(6-(4-Cyclopropylpiperazin-1-yl)pyridin-3-yl)-N-(5-fluoro-2-methoxyphenyl)thiazol-2-amine.TFA]",4.67,5.41,–,6.00,–
